Assays:
cardiac myocytes = experiment: Endomyocardial biopsy of patient on hydroxychloroquine; type: in vivo, human; settings: same patient
Experimental: An endomyocardial biopsy was performed on the same subject. […] Amyloid was not present on special stains, including sulfated Alcian blue stain and Congo red stains (C of FIG. 4 and D of FIG. 4, respectively, ×100 original magnification).

Excerpt for heart: Planar scintigraphy (D of FIG. 3) of ^99mTc-PYP uptake allows count comparison between the heart (right) with the contralateral chest (left) on 3-hour uptake anterior planar imaging.

**Q.** Which “left ventricular wall finding on echocardiogram” value (heart; human, in vivo) does the source give for CCN(CCO)CCCC(C)Nc1ccnc2cc(Cl)ccc12 (stereo not drawn) [hydroxychloroquine] here?
**A.** concentric left ventricular wall thickening

**Q.** And the “global averaged longitudinal peak systolic strain” value (heart; patient on hydroxychloroquine for 15 years, abnormal, most preserved at the apex)?
**A.** −10%

**Q.** What about the “hematoxylin and eosin-stained section finding” value (cardiac myocytes; light microscopy) of the same compound?
**A.** marked sarcoplasmic vacuolization of cardiac myocytes

**Q.** What about the “toluidine blue-stained thick section finding” value (cardiac myocytes) of the same compound?
**A.** dense sarcoplasmic inclusions

**Q.** What about the electron microscopy finding (cardiac myocytes; in keeping with hydroxychloroquine-mediated cardiotoxicity) of the same compound?
**A.** presence of myelinoid and curvilinear bodies

**Q.** And the “amyloid on special stains” value (cardiac myocytes; sulfated Alcian blue and Congo red stains)?
**A.** not present

— patent US20200046860A1, “Systems and Methods for the Detection of Hydroxychloroquine-Mediated Cardiotoxicity” (Mayo Foundation for Medical Education and Research, priority 2018, published 2020)
